How the values were obtained:
Type in all cases: in vivo
EAE mice spinal cord = assay: Spinal cord histopathology of EAE mice; conditions: 30 days post-immunization, OxA 300 μg IP or RO, grading 0-4, vs PBS
Protocol: FIG. 3. […] 30 days post-immunization, mice (from the PBS, OxA300 RO, and OxA300 IP groups of FIG. 2, panel C) were sacrificed and spinal cords were harvested, fixed overnight in 4% paraformaldehyde and stored in 70% ethanol. Spinal cords were then embedded in paraffin and cut in […] section. After haematoxylin/eosin (to distinguish cell infiltration) and luxol fast blue (to label myelin) staining, photography was performed at ×1.25 and ×10 magnifications for the spinal cord sections of PBS, OxA300 RO and OxA300 IP mice. […] Histopathology grading was as follows: 0-normal appearance, 1—some infiltrated cells and low demyelination, 2—2 or 3 infiltrated areas and low demyelination, 3—numerous infiltrated areas and strong demyelination, 4—important cell infiltration throughout the tissue with strong demyelination. *P<0.05 (nonparametric t-test, compared to PBS group).

[1] = test system: chronic pancreatitis mice model induced by cerulein; assay: Cerulein-induced chronic pancreatitis mice model; conditions: OxA 1.40 μmol/Kg 2 ip injections/week
Text: FIG. 7. Pancreatic lymphocyte infiltration determined by immunostaining of CD45+ cells. Values were expressed as percentage of stained surface. **, p<0.01
FIG. 8. Amylase activity in blood samples of control mice, cerulein-induced mice and cerulein-induced mice treated with OxA. *, p<0.05; ***, p<0.001 and NS=non-significant.
We have investigated the effect of orexin A (OxA) on chronic pancreatitis mice model induced by supraphysiologic doses of cerulein (3 intraperitoneal injections/week at 100 μg/kg). […] In mice treated by OxA (2 intraperitoneal injections/week at 1.40 μmol/Kg) the lesions induced by cerulein improved. OxA-treated mice had lower number of acino-ductal metaplasia.

DSS-induced colitis mice = assay: DSS-induced colitis in mice, DAI score; conditions: 5% DSS orally 7 days, OxA 0.22 μmoles/kg daily intraperitoneal, scale 0 to 4
Text: FIG. 1. Orexin A ameliorates the DAI (weight and colitis score) of DSS-induced colitis mice. Mice were orally treated with 5% DSS for 7 days in the presence or in the absence of daily intraperitoneal injection of OxA (0.22 μmoles/kg). DAI score including weight loss, severity of diarrhea, the presence of blood in the stool, inflammation and edema was estimated using a scale ranging from 0 (no symptoms) to 4 (severe colitis). DSS, dextran sulfate sodium; WT, wild type mice.
Orexin A ameliorates the DAI (weight and colitis score) of DSS-induced colitis mice. As shown in FIG. 1 when DSS-induced colitis mice were treated with OxA, the DAI score was ameliorated (about of 1.5). […] Therefore, orexin A presents potent intrinsic anti-inflammatory properties, capable of modulating the Th/Treg homeostasis during an auto-immune response as aggressive as in a chronic EAE model.

[2] = test system: EAE mice (C57BL/6 wild-type); assay: EAE (MOG35-55 induced) clinical score in mice; conditions: orexin A 100 or 300 μg per mouse for 5 days, IP or retro-orbital, before onset or at moderate EAE score, scale 0-5
Protocol: FIG. 2. […] EAE was induced with 100 μg of MOG35-55 (Myelin Oligodendrocyte Glycoprotein 35-55) as previously described (Proc Natl Acad Sci USA. 106(6):2012-7, 2009) to 9 week old female C57BL/6 wild-type (WT) mice (n=10/group). Panels show clinical signs of EAE scored daily in a blinded fashion for over 30 days on a scale of 0-5 as follows: 0, no detectable clinical signs, 1, waddling gait with limp tail, 2, ataxia with full paralysis of one limb, 3, full paralysis of two limbs, 4, full paralysis of two limbs with important weight loss (>20% of initial weight) and 5, moribund or dead. Then, mice were given:
Panel A, intraperitoneally (IP) either PBS (group PBS IP), 100 μg of orexin A per mouse for 5 days on day 3 (=before the onset, group BOxA100 IP) or at a moderate EAE score (=1.5-2 for group OxA100 IP).
Panel B, intraperitoneally either PBS (group PBS), 100 μg (group OxA100 IP) or 300 μg (group OxA300 IP) of orexin A per mouse for 5 days at a moderate EAE score (=1.5-2).
Panel C, either PBS (group PBS), 300 μg of orexin A per mouse intraperitoneally (group OxA300 IP) or retro-orbitally (RO) (group OxA300 RO) for 5 days at a moderate EAE score (=1.5-2).
The EAE score is shown as mean+/−SEM. *P<0.05 (nonparametric t-test, compared to PBS group).
Orexin A ameliorates the DAI (weight and colitis score) of DSS-induced colitis mice. […]

regulatory T cell (Treg) = assay: Regulatory T cells in draining lymph nodes of EAE mice, flow cytometry; conditions: day 30 post-immunization, OxA 300 μg IP or RO, vs PBS
Protocol: FIG. 5. […] On day 30 post-immunization, draining lymph nodes were harvested from the naïve, PBS, OxA300 RO, and OxA300 IP groups (FIG. 2, panel C). Assessment by flow cytometry was performed by using the mouse regulatory T cell staining kit: lymph node Tregs were defined as CD4^+CD25^+Foxp3^+ cells and proliferative Tregs as CD4^+CD25^+Foxp3^+Ki67^+ cells.
Histograms represent the mean of the percentage (left) and the total number (right) of Tregs and proliferative Tregs (Ki67^+Tregs) for each group. Bars represent the mean+/−SEM of 5 individual mice. *P<0.05 (non parametric t-test, compared to PBS group).

[3] = test system: IFNγ and IL-17 gene expression; assay: Th1 (IFNγ) and Th17 (IL-17) cytokine gene expression in brain of EAE mice, RT-qPCR; conditions: 30 days after EAE induction, OxA 300 μg IP or RO, vs PBS
Protocol: FIG. 4. […] It was determined 30 days after EAE induction of PBS, OxA300 RO, and OxA300 IP mice (from FIG. 2, panel C) by real time RT-qPCR as previously described (Proc Natl Acad Sci USA. 106(6):2012-7, 2009). *P<0.05 (nonparametric t-test, compared to PBS group).

## Orexin A: neuropeptide, endogenous ligand of OX1R and OX2R; SEQ ID NO:2 peplpdccrqk tcscrlyell hgagnhaagi ltlx
EAE mice spinal cord
  histopathological EAE score: significantly decreases
EAE mice spinal cord; listed as orexin A
  histopathological EAE score: drastic reduction
[1]; 3 weeks cerulein 100 μg/kg 3 ip injections/week
  lesions induced by cerulein (pancreas histology): improved
[1]; cerulein mice
  amylase activity in blood samples: significantly reduced
  number of acino-ductal metaplasia: lower number
[1]; cerulein mice, quantitative imaging analysis, 18% in OxA-untreated mice
  pancreatic lymphocyte infiltration (anti-CD45 immunohistochemistry): 6 % of the pancreatic surface
[1]; cerulein mice, quantitative imaging analysis, 40% in OxA-untreated mice
  pancreatic fibrosis on Picrosirius staining: 12 % of the pancreatic surface
DSS-induced colitis mice
  DAI score (weight and colitis score): ameliorates
DSS-induced colitis mice; listed as OxA
  DAI score (weight and colitis score): ~1.5
[2]
  clinical features of EAE (EAE score): dramatically alleviate
[2]; listed as orexin A
  clinical features of EAE (EAE score): significantly ameliorated
Regulatory T cell (Treg)
  regulatory T cell (Treg) proportion: increased
Regulatory T cell (Treg); listed as orexin A
  regulatory T cell (Treg) proportion: increase
[3]
  Th1/Th17 pro-inflammatory responses (IFNγ, IL-17 gene expression) in CNS tissues: efficiently suppresses
[3]; listed as orexin A
  Th1/Th17 pro-inflammatory responses (IFNγ, IL-17 gene expression) in CNS tissues: drastic reduction

— patent US20180305458A1, “METHODS AND PHARMACEUTICAL COMPOSITIONS FOR THE TREATMENT OF AUTOIMMUNE INFLAMMATORY DISEASES” (INSERM (INSTITUT NATIONAL DE LA SANTÉ ET DE LA RECHERCHE …, priority 2015, published 2018)
